Measured values: ChEMBL document CHEMBL4627264, “Synthesis and evaluation of novel radioiodinated PSMA targeting ligands for potential radiotherapy of prostate cancer” (Bioorg Med Chem, 2020)
The source made the active and inactive calls. No cut-off for these calls is given here.

Experiments:
[1] = target: T1, Glutamate carboxypeptidase 2 (Homo sapiens, UniProt Q04609); experiment: Inhibition of […] binding to PSMA in human PC3-PIP cells at 0.2 nM incubated for 1 hr; assay type: cell-based
Target sequence in this assay (Q04609 whole entry, looked up): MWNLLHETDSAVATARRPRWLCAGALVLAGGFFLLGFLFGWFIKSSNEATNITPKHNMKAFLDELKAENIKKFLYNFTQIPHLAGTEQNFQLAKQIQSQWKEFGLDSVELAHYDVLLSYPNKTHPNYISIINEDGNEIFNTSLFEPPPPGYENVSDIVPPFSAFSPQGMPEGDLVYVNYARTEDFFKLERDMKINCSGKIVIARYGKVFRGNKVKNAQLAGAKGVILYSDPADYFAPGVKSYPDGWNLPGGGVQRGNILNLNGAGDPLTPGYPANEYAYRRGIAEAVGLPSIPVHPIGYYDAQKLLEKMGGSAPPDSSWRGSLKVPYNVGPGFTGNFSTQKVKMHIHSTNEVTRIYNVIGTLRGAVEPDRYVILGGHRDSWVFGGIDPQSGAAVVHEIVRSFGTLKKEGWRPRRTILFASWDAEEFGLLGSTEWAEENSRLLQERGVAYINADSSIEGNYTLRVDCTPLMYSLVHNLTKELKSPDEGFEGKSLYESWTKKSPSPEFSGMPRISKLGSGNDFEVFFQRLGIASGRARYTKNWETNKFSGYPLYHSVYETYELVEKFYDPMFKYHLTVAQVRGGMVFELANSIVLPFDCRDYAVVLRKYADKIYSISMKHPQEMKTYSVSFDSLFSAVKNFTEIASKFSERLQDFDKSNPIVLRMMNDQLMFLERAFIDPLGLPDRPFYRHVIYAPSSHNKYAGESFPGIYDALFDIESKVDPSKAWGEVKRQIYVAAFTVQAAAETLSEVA

[2] = target: T1, Glutamate carboxypeptidase 2; experiment: Displacement of [125I]MIP-1095 from PSMA in human PC3-PIP cells after 1 hr by gamma counter analysis; assay type: cell-based
Target sequence in this assay (Q04609 whole entry): as the sequence (Q04609 whole entry, looked up) above

[3] = target: T1, Glutamate carboxypeptidase 2; experiment: Binding affinity to PSMA in human PC3-PIP cells assessed as drug uptake per 10^6 cells at 0.2 nM incubated for 2 hrs followed by compound washout measured using 125I-labelled compound by gamma counter analysis; assay type: ADME, cell-based; conditions: 0.0002 µM
Target sequence in this assay (Q04609 whole entry): as the sequence (Q04609 whole entry, looked up) above

[4] = target: T1, Glutamate carboxypeptidase 2; experiment: Binding affinity to PSMA in human PC3-PIP cells assessed as drug uptake per 10^6 cells at 0.2 nM incubated for 1 hr followed by compound washout measured using 125I-labelled compound by gamma counter analysis; assay type: ADME, cell-based; conditions: 0.0002 µM
Target sequence in this assay (Q04609 whole entry): as the sequence (Q04609 whole entry, looked up) above

[5] = Drug uptake in kidney of CD-1 nude mouse xenografted with PC3-PIP cells at 6 nM to 9 nM, iv measured at 4 hrs using 125I-labelled compound by gamma counter analysis; assay type: ADME, organism-based; conditions: in vivo, 0.006 µM
[6] = Drug uptake in tumor of CD-1 nude mouse xenografted with PC3-PIP cells at 6 nM to 9 nM, iv measured at 24 hrs using 125I-labelled compound by gamma counter analysis; assay type: ADME, organism-based, Neoplasm; conditions: in vivo, 0.006 µM
[7] = Drug uptake in human PC3-PIP cells at 0.2 nM incubated prior to compound washout measured using 125I-labelled compound by gamma counter analysis; assay type: ADME, cell-based; conditions: 0.0002 µM, TDE = time-dependent effect
[8] = Drug uptake in kidney of CD-1 nude mouse xenografted with PC3-PIP cells at 6 nM to 9 nM, iv measured after 2 mins to 1440 mins using 125I-labelled compound by gamma counter analysis; assay type: ADME, organism-based; conditions: in vivo, 0.006 µM
[9] = Drug uptake in liver of CD-1 nude mouse xenografted with PC3-PIP cells at 6 nM to 9 nM, iv measured at 4 hrs using 125I-labelled compound by gamma counter analysis; assay type: ADME, organism-based; conditions: in vivo, 0.006 µM
[10] = Drug uptake in liver of CD-1 nude mouse xenografted with PC3-PIP cells at 6 nM to 9 nM, iv measured at 24 hrs using 125I-labelled compound by gamma counter analysis; assay type: ADME, organism-based; conditions: in vivo, 0.006 µM
[11] = Drug uptake in kidney of CD-1 nude mouse xenografted with PC3-PIP cells at 6 nM to 9 nM, iv measured at 24 hrs using 125I-labelled compound by gamma counter analysis; assay type: ADME, organism-based; conditions: in vivo, 0.006 µM
[12] = Drug internalization in human PC3-PIP cells at 0.2 nM incubated for 2 hrs followed by compound washout measured using 125I-labelled compound by gamma counter analysis; assay type: ADME, cell-based; conditions: 0.0002 µM
[13] = Drug internalization in human PC3-PIP cells at 0.2 nM incubated for 1 hr followed by compound washout measured using 125I-labelled compound by gamma counter analysis; assay type: ADME, cell-based; conditions: 0.0002 µM
[14] = Drug uptake in tumor of CD-1 nude mouse xenografted with PC3-PIP cells at 6 nM to 9 nM, iv measured at 4 hrs using 125I-labelled compound by gamma counter analysis; assay type: ADME, organism-based, Neoplasm; conditions: in vivo, 0.006 µM
[15] = Drug uptake in kidney of CD-1 nude mouse xenografted with PC3-PIP cells at 6 nM to 9 nM, iv measured at 1 hr using 125I-labelled compound by gamma counter analysis; assay type: ADME, organism-based; conditions: in vivo, 0.006 µM
[16] = Drug uptake in human PC3-PIP cells at 0.2 nM incubated for 1 hr in presence of PSMA inhibitor PSMA-617 measured using 125I-labelled compound by gamma counter analysis; assay type: ADME, cell-based; conditions: 0.0002 µM
[17] = Drug uptake in tumor of CD-1 nude mouse xenografted with PC3-PIP cells at 6 nM to 9 nM, iv measured at 1 hr using 125I-labelled compound by gamma counter analysis; assay type: ADME, organism-based, Neoplasm; conditions: in vivo, 0.006 µM
[18] = Drug uptake in liver of CD-1 nude mouse xenografted with PC3-PIP cells at 6 nM to 9 nM, iv measured at 1 hr using 125I-labelled compound by gamma counter analysis; assay type: ADME, organism-based; conditions: in vivo, 0.006 µM
[19] = Clearance in tumor of CD-1 nude mouse xenografted with PC3-PIP cells at 6 nM to 9 nM, iv measured at 4 hrs using 125I-labelled compound by gamma counter analysis; assay type: ADME, organism-based, Neoplasm; conditions: in vivo, 0.006 µM
[20] = Drug uptake in spleen of CD-1 nude mouse xenografted with PC3-PIP cells at 6 nM to 9 nM, iv measured at 4 hrs using 125I-labelled compound by gamma counter analysis; assay type: ADME, organism-based; conditions: in vivo, 0.006 µM
[21] = Uptake in kidney of CD-1 nude mouse xenografted with PC3-PIP cells at 6 nM to 9 nM, iv measured at 1 hr using 125I-labelled compound by gamma counter analysis; conditions: in vivo, 0.006 µM
[22] = Uptake in kidney of CD-1 nude mouse xenografted with PC3-PIP cells at 6 nM to 9 nM, iv measured at 4 hrs using 125I-labelled compound by gamma counter analysis; conditions: in vivo, 0.006 µM
[23] = Uptake in kidney of CD-1 nude mouse xenografted with PC3-PIP cells at 6 nM to 9 nM, iv measured at 24 hrs using 125I-labelled compound by gamma counter analysis; conditions: in vivo, 0.006 µM
[24] = Drug uptake in liver of CD-1 nude mouse xenografted with PC3-PIP cells at 6 nM to 9 nM, iv measured at 2 mins using 125I-labelled compound by gamma counter analysis; assay type: ADME, organism-based; conditions: in vivo, 0.006 µM
[25] = Drug uptake in large intestine of CD-1 nude mouse xenografted with PC3-PIP cells at 6 nM to 9 nM, iv measured at 1 hr using 125I-labelled compound by gamma counter analysis; assay type: ADME, organism-based; conditions: in vivo, 0.006 µM
[26] = Drug uptake in large intestine of CD-1 nude mouse xenografted with PC3-PIP cells at 6 nM to 9 nM, iv measured at 4 hrs using 125I-labelled compound by gamma counter analysis; assay type: ADME, organism-based; conditions: in vivo, 0.006 µM
[27] = Drug uptake in small intestine of CD-1 nude mouse xenografted with PC3-PIP cells at 6 nM to 9 nM, iv measured at 1 hr using 125I-labelled compound by gamma counter analysis; assay type: ADME, organism-based; conditions: in vivo, 0.006 µM

| inhibition [1] | Drug uptake [3] [%ID] | Drug uptake [4] [%ID] | Drug uptake [7] | Drug uptake [8] | Drug uptake [12] [%] | Drug uptake [13] [%] | Drug uptake [16] | Compound | also measured |
| --- | --- | --- | --- | --- | --- | --- | --- | --- | --- |
| Active | – | – | – | – | – | – | – | O=C(O)CC[C@H](NC(=O)N[C@@H](CCCCNC(=O)[C@H](Cc1ccccc1)NC(=O)COc1ccc(C[C@H](NC(=O)CNC(=O)c2ccc(I)cc2)C(=O)O)cc1)C(=O)O)C(=O)O | IC50 [2]: 1.33 nM |
| – | – | – | – | – | – | – | – | O=C(O)CC[C@H](NC(=O)N[C@@H](CCCCNC(=O)Nc1ccc(I)cc1)C(=O)O)C(=O)O [MIP-1095] | IC50 [2]: 3 nM |
| Active | – | – | – | – | – | – | – | O=C(O)CC[C@H](NC(=O)N[C@@H](CCCCNC(=O)[C@H](Cc1ccccc1)NC(=O)COc1ccc(C[C@H](NC(=O)[C@H](CCC(=O)O)NC(=O)c2ccc(I)cc2)C(=O)O)cc1)C(=O)O)C(=O)O | – |
| Active | – | – | – | – | – | – | – | O=C(O)CC[C@H](NC(=O)N[C@@H](CCCCNC(=O)[C@H](Cc1ccccc1)NC(=O)[C@H](CCC(=O)O)NC(=O)c1ccc(I)cc1)C(=O)O)C(=O)O | – |
| Active | – | – | – | – | – | – | – | O=C(O)CC[C@H](NC(=O)N[C@@H](CCCCNC(=O)[C@H](Cc1ccccc1)NC(=O)COc1ccc(C[C@H](NC(=O)Nc2ccc(I)cc2)C(=O)O)cc1)C(=O)O)C(=O)O | IC50 [2]: 13 nM |
| Active | – | – | – | – | – | – | – | O=C(O)CC[C@H](NC(=O)N[C@@H](CCCCNC(=O)[C@H](Cc1ccccc1)NC(=O)COc1ccc(C[C@H](NC(=O)[C@H](CCC(=O)O)NC(=O)[C@H](CCC(=O)O)NC(=O)c2ccc(I)cc2)C(=O)O)cc1)C(=O)O)C(=O)O | IC50 [2]: 3.52 nM |
| – | 75 | 43 | Tde | Active | 47 | 37 | Not Active | O=C(O)CC[C@H](NC(=O)N[C@@H](CCCCNC(=O)[C@H](Cc1ccccc1)NC(=O)[C@H](CCC(=O)O)NC(=O)[C@H](CCC(=O)O)NC(=O)c1ccc([125I])cc1)C(=O)O)C(=O)O | Drug uptake [5]: 80.3 % ID/g; Drug uptake [6]: 17 % ID/g; Drug uptake [9]: 3.64 % ID/g; Drug uptake [10]: 0.17 % ID/g; Drug uptake [11]: 6.91 % ID/g; Drug uptake [14]: 23.1 % ID/g; Drug uptake [15]: 71.8 % ID/g; Drug uptake [17]: 18.5 % ID/g; Drug uptake [18]: 7.18 % ID/g |
| – | 53 | 40 | Tde | Active | 47 | 38 | Not Active | O=C(O)CC[C@H](NC(=O)N[C@@H](CCCCNC(=O)Nc1ccc([125I])cc1)C(=O)O)C(=O)O | Drug uptake [9]: 6.45 % ID/g; Drug uptake [10]: 0.71 % ID/g; Drug uptake [18]: 10.2 % ID/g |
| – | 76 | 49 | Tde | Active | 60 | 58 | Not Active | O=C(O)CC[C@H](NC(=O)N[C@@H](CCCCNC(=O)[C@H](Cc1ccccc1)NC(=O)COc1ccc(C[C@H](NC(=O)[C@H](CCC(=O)O)NC(=O)c2ccc([125I])cc2)C(=O)O)cc1)C(=O)O)C(=O)O | Drug uptake [5]: 114.7 % ID/g; CL [19]: 45%; Drug uptake [14]: 14.3 % ID/g; Drug uptake [15]: 174.6 % ID/g; Drug uptake [17]: 26.2 % ID/g; Drug uptake [20]: 15.4 % ID/g |
| – | 67 | 39 | Tde | Active | 64 | 62 | Not Active | O=C(O)CC[C@H](NC(=O)N[C@@H](CCCCNC(=O)[C@H](Cc1ccccc1)NC(=O)COc1ccc(C[C@H](NC(=O)[C@H](CCC(=O)O)NC(=O)[C@H](CCC(=O)O)NC(=O)c2ccc([125I])cc2)C(=O)O)cc1)C(=O)O)C(=O)O | Drug uptake [6]: 11.1 % ID/g; Drug uptake [21]: 127.8 % ID/g; Drug uptake [22]: 138.1 % ID/g; Drug uptake [14]: 17.4 % ID/g; Drug uptake [23]: 136.4 % ID/g; Drug uptake [17]: 17.2 % ID/g |
| – | 52 | 36 | Tde | Not Active | 55 | 51 | Not Active | O=C(O)CC[C@H](NC(=O)N[C@@H](CCCCNC(=O)[C@H](Cc1ccccc1)NC(=O)COc1ccc(C[C@H](NC(=O)CNC(=O)c2ccc([125I])cc2)C(=O)O)cc1)C(=O)O)C(=O)O | Drug uptake [24]: 29.4 % ID/g; Drug uptake [25]: 21.6 % ID/g; Drug uptake [26]: 9.98 % ID/g |
| Active | – | – | – | – | – | – | – | O=C(O)CC[C@H](NC(=O)N[C@@H](CCCCNC(=O)[C@H](Cc1ccccc1)NC(=O)[C@H](CCC(=O)O)NC(=O)[C@H](CCC(=O)O)NC(=O)c1ccc(I)cc1)C(=O)O)C(=O)O | – |
| – | 60 | 31 | Tde | Not Active | 76 | 73 | Not Active | O=C(O)CC[C@H](NC(=O)N[C@@H](CCCCNC(=O)[C@H](Cc1ccccc1)NC(=O)COc1ccc(C[C@H](NC(=O)Nc2ccc([125I])cc2)C(=O)O)cc1)C(=O)O)C(=O)O | Drug uptake [24]: 50.6 % ID/g; Drug uptake [27]: 49.7 % ID/g; Drug uptake [26]: 51.4 % ID/g |
| – | 76 | 43 | Tde | Active | 45 | 36 | Not Active | O=C(O)CC[C@H](NC(=O)N[C@@H](CCCCNC(=O)[C@H](Cc1ccccc1)NC(=O)[C@H](CCC(=O)O)NC(=O)c1ccc([125I])cc1)C(=O)O)C(=O)O | Drug uptake [5]: 25.4 % ID/g; Drug uptake [14]: 5.17 % ID/g; Drug uptake [15]: 41.4 % ID/g; Drug uptake [17]: 10.7 % ID/g |
